# Test results as given in publication PMC12195740, “Discovery of Novel Imidazothiazole-Based Hydroxamic Acid Derivatives as Potent Indoleamine 2,3-Dioxygenase 1 and Histone Deacetylase 6 Dual Inhibitors” (Molecules, 2025).
# How the values were obtained:
# [1] = molecular target: T1, HDAC6 human recombinant enzyme (Homo sapiens, UniProt Q9UBN7); assay: HDAC6 enzyme inhibitory activity assay; assay type: biochemical; conditions: read-out: HDAC6 Inhibition Rate at 1 μM
# T1 sequence (Q9UBN7 1-1215): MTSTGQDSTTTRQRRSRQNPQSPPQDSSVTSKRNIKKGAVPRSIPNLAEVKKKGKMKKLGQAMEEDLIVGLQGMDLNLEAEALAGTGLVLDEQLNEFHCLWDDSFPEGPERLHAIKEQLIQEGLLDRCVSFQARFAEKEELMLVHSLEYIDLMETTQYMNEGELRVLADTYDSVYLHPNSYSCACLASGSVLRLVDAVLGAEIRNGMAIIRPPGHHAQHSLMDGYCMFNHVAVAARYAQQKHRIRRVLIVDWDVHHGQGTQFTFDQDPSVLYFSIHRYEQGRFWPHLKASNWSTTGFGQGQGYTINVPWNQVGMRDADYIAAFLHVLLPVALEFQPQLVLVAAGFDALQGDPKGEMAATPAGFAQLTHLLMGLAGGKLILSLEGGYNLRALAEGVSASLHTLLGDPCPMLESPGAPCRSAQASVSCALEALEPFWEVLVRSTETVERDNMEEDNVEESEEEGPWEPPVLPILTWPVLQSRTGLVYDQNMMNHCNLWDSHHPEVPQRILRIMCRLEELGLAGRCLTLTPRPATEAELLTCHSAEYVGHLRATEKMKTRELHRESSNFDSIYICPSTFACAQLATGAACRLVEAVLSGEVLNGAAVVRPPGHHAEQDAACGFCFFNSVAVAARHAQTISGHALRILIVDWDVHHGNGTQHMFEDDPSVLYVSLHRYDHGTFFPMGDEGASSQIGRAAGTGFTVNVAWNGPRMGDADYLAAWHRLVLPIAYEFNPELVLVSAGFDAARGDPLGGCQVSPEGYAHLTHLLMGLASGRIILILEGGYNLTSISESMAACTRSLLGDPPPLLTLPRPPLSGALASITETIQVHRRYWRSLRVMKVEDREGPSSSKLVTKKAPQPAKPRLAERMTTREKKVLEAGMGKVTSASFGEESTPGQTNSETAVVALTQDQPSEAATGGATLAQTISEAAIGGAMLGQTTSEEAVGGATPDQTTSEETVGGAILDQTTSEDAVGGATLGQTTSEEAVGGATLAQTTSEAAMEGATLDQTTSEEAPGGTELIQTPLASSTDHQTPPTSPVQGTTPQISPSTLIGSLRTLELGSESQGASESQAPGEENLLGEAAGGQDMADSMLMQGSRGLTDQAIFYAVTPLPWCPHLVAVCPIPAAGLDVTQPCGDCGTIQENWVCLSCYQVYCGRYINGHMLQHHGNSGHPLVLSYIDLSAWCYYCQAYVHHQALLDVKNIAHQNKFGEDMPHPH
# Procedure: Section S1. Biological assays
# Section S 1.1. HDAC6 enzyme inhibitory activity assay
# Preparation of Master Mix. Trichostatin A in DMSO, Fluorogenic HDAC substrate 3, and HDAC6 human recombinant enzyme were diluted to 20 μM, 200 μM, and 7 ng/uL, respectively, using HDAC Assay Buffer.BSA was dissolved in 1 mL of distilled water to make a BSA solution at a concentration of 1 mg/mL. A certain amount of Fluorogenic HDAC substrate 3, BSA and HDAC Assay Buffer were mixed well to make a master mix, and 40 μL of the master mix was added to each well of a 96-well plate. In the drug administration group, 5 μL of Trichostatin A in DMSO and HDAC6 human recombinant enzyme were added to each well. 5 μL of HDAC Assay Buffer and HDAC6 human recombinant enzyme were added to each well of the blank group, and incubated for 30 min at 37 °C. Finally, 50 μL of undiluted HDAC substrate 3, BSA and HDAC Assay Buffer were added to each well. 50 μL of 2x HDAC Developer was added to each well and incubated at room temperature for 15 min. The samples were read in an enzyme marker with an excitation wavelength in the range of 350-380 nm and an emission light in the range of 440-460 nm.
# The values of fluorescence intensities were read and the inhibition rate and IC50 were calculated. […]
# [2] = General toxicity in CT26 tumor-bearing BALB/c mice (body weight, H&E of organs); assay type: in vivo; conditions: 150 mg/kg ip every 3 days for 21 days, versus vehicle group
# Procedure: After that, fixed cells were washed with PBS. Then, cells were isolated by centrifugation and stained with propidium iodide (KeyGEN BioTECH, China) for 30 min. The samples were measured using flow cytometry and analyzed by Flowjo software.
# Section S 1.6 Western blot assay […]
# earlier were obtained by lysing the cells in ice-cold RIPA buffer with protease and phosphatase inhibitor and stored at -20°C for future use. The protein concentrations were quantified by the Bradford method (Bio-Rad) using a Multimode Varioscan instrument (Thermo Fischer Scientific). […]
# and transferred to a polyvinylidene difluoride (PVDF) membrane (Amersham Biosciences). After the membrane was blocked at room temperature for 2 h in blocking solution, primary antibody was added and incubated at 4°C overnight. Ac-α-tubulin, Ac-histone H3 and GAPDH antibodies were purchased from Imgenex, USA. After three TBST washes, the membrane was incubated with corresponding horseradish peroxidase-labeled secondary antibody (1:2,000) (Santa Cruz) at room temperature for 1 h. Membranes were washed with TBST three times for 15 min and the protein bands were detected with chemiluminescence reagent (Thermo Fischer Scientific). The X-ray films were developed using developer and fixed with fixer solution.
# Section S 1.7 In vivo antitumor efficacy […]
# line CT-26 in BALB/c mice as described previously. Five-week-old male BALB/c mice were purchased from the Shanghai Ling Chang biotechnology company (China), and tumors were induced through subcutaneous injection of 1 × 10^7 cells in 100 µL of sterile PBS into the dorsal region. The animals were divided into four groups, starting on the second day. When the tumors reached a volume of 50−100 mm3 in all mice, the first group was administered intraperitoneally with an equivalent volume of 5% dextrose as the vehicle control. The second group was treated with […]
# treated with complex 10e at doses of 150 mg/kg body weight once every 3 days for 3 weeks, respectively. All compounds were dissolved in vehicle. Tumor volumes and body weights were […]
# rhIDO1 = molecular target: T2, rhIDO1 (Homo sapiens, UniProt P14902); assay: IDO1 inhibition assay; assay type: biochemical; conditions: means ± S.D. of three independent experiments
# T2 construct: purchased
# Procedure: Section S1. Biological assays […]
# Section S 1.2 IDO1 inhibition assays
# IDO1 inhibition assays were carried out according to the manufacturers’ procedures, as described previously. The standard assay mixture (100 μL) contained 50 mM of potassium phosphate buffer (pH = 6.5), 10 mM ascorbate, 10 μM methylene blue, 100 μg/mL catalase, 1 mM L-tryptophan and 10 μg/mL of rhIDO1. The plate was incubated at 37 °C in a dark environment, and reactions were terminated after 60 min by the addition of 50 μL of fluorogenic developer solution and further incubated at 45 °C in dark for 3 h. Then, the plate was allowed to cool to room temperature for at least 1 h. After centrifugation at 1500g for 5 min at 20 °C, the fluorescence […]
# M1000 Pro, Tecan US, Morrisville, NC) in an end-point mode. […]
# SW480 cells = assay: Cell viability (MTT) assay, SW480; conditions: Homo sapiens, SW480, 48 h, read-out: Antiproliferative IC50, SW480
# Procedure: Section S 1.3 Cell viability assays
# (§1) Cell Bank at the Chinese Academy of Sciences.
# (§2) DMEM and FBS were obtained from Gibco-Thermo (BRL Co. Ltd., USA).
# (§3) another 48 h. The cells were stained with 10 μl of MTT at incubator for approximately 4 h. The medium was discarded and replaced by 100 mL DMSO. The O.D. value was read at 570/630 nm with a spectrophotometer.
# HCT-116 cells = assay: Cell viability (MTT) assay, HCT-116; conditions: Homo sapiens, HCT-116, 48 h, read-out: Antiproliferative IC50, HCT-116
# Procedure: Section S 1.3 Cell viability assays
# as §1, §2, §3
# MDA-MB-231 cells = assay: Cell viability (MTT) assay, MDA-MB-231; conditions: Homo sapiens, MDA-MB-231, 48 h, read-out: Antiproliferative IC50, MDA-MB-231
# Procedure: Section S 1.3 Cell viability assays
# as §1, §2, §3
# MCF-7 cells = assay: Cell viability (MTT) assay, MCF-7; conditions: Homo sapiens, MCF7, 48 h, read-out: Antiproliferative IC50, MCF-7
# Procedure: Section S 1.3 Cell viability assays
# as §1, §2, §3
# T2 sequence (P14902 whole entry): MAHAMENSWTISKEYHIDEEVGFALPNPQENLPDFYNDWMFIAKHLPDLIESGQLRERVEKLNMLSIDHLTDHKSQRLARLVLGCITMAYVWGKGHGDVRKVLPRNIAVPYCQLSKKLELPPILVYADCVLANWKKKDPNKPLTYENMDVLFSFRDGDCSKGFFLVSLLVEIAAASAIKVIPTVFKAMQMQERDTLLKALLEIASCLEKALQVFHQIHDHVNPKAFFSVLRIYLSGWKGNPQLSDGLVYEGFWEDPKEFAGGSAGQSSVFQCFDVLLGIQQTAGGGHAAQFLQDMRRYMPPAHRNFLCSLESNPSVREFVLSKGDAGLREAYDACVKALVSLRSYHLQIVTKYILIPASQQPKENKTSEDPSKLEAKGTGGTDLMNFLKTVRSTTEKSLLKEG
smiles,measurement,setting,value
"O=C(CCCCCCC(=O)Nc1ccccc1)NO [SAHA, reference compound]",inhibition at 1 µM,[1],91.7%
same,influence on body weight of the mice,[2],no obvious influence
"O=C(CCCCNc1ccc(NC(=O)c2cnc3scc(-c4ccc(Br)cc4)n23)cc1)NO [Compound 10c, 3-(4-Bromophenyl)-N-{4-[(5-(hydroxyamino)-5-oxopentyl)amino)phenyl}imidazo[2,1-b]thiazole-5-carboxamide]",IC50,rhIDO1,340 ± 90 nM
same,inhibition at 1 µM,[1],19.4%
"Cc1ccc(-c2csc3ncc(C(=O)Nc4ccc(NCCCC(=O)NO)cc4)n23)cc1 [Compound 10h, N-{4-[(4-(hydroxyamino)-4-oxobutyl)amino]phenyl}-3-(p-tolyl)imidazo[2,1-b]thiazole-5-carboxamide]",IC50,rhIDO1,1780 ± 470 nM
same,inhibition at 1 µM,[1],33.7%
"NS(=O)(=O)NCCNc1nonc1C(=NO)Nc1ccc(F)c(Br)c1 [Epacadostat, reference compound]",IC50,SW480 cells,> 80000 nM
same,IC50,HCT-116 cells,> 80000 nM
same,IC50,MDA-MB-231 cells,> 80000 nM
same,IC50,MCF-7 cells,> 80000 nM
"O=C(CCNc1ccc(NC(=O)c2cnc3scc(-c4ccc(Br)cc4)n23)cc1)NO [Compound 10a, 3-(4-Bromophenyl)-N-{4-[(3-(hydroxyamino)-3-oxopropyl)amino]phenyl}imidazo[2,1-b]thiazole-5-carboxamide]",IC50,rhIDO1,1870 ± 60 nM
same,inhibition at 1 µM,[1],22.4%
"Cc1ccc(-c2csc3ncc(C(=O)Nc4ccc(NCCC(=O)NO)cc4)n23)cc1 [Compound 10g, N-{4-[(3-(hydroxyamino)-3-oxopropyl)amino]phenyl}-3-(p-tolyl)imidazo[2,1-b]thiazole-5-carboxamide]",IC50,rhIDO1,2070 ± 290 nM
same,inhibition at 1 µM,[1],31.2%
"O=C(CCCNc1ccc(NC(=O)c2cnc3scc(-c4ccc(Br)cc4)n23)cc1)NO [Compound 10b, 3-(4-Bromophenyl)-N-{4-[(4-(hydroxyamino)-4-oxobutyl)amino)phenyl}imidazo[2,1-b]thiazole-5-carboxamide]",IC50,rhIDO1,1060 ± 20 nM
same,inhibition at 1 µM,[1],25.2%
"Cc1ccc(-c2csc3ncc(C(=O)NCc4ccc(C(=O)NO)cc4)n23)cc1 [Compound 7b, N-[4-(hydroxycarbamoyl)benzyl]-3-(p-tolyl)imidazo[2,1-b]thiazole-5-carboxamide]",IC50,rhIDO1,960 ± 130 nM
same,inhibition at 1 µM,[1],48%
"Cc1ccc(-c2csc3ncc(C(=O)Nc4ccc(NCCCCC(=O)NO)cc4)n23)cc1 [Compound 10i, N-{4-[(5-(hydroxyamino)-5-oxopentyl)amino]phenyl}-3-(p-tolyl)imidazo[2,1-b]thiazole-5-carboxamide]",IC50,rhIDO1,590 ± 110 nM
same,inhibition at 1 µM,[1],35.5%
O=C(CCCCCNc1ccc(NC(=O)c2cnc3scc(-c4ccc(Br)cc4)n23)cc1)NO [Compound 10d],IC50,SW480 cells,> 80000 nM
same,IC50,rhIDO1,120 ± 10 nM
same,IC50,HCT-116 cells,24400 ± 4780 nM
same,inhibition at 1 µM,[1],46.2%
same,IC50,MDA-MB-231 cells,> 80000 nM
same,IC50,MCF-7 cells,52900 ± 6950 nM
"Cc1ccc(-c2csc3ncc(C(=O)Nc4ccc(NCC(=O)NO)cc4)n23)cc1 [Compound 10f, N-{4-[(2-(hydroxyamino)-2-oxoethyl)amino]phenyl}-3-(p-tolyl)imidazo[2,1-b]thiazole-5-carboxamide]",IC50,rhIDO1,6160 ± 830 nM
same,inhibition at 1 µM,[1],28.8%
"Cc1ccc(-c2csc3ncc(C(=O)Nc4ccc(NCCCCCC(=O)NO)cc4)n23)cc1 [Compound 10j, N-{4-[(6-(hydroxyamino)-6-oxohexyl)amino]phenyl}-3-(p-tolyl)imidazo[2,1-b]thiazole-5-carboxamide]",IC50,SW480 cells,> 80000 nM
same,IC50,rhIDO1,380 ± 50 nM
same,IC50,HCT-116 cells,> 80000 nM
same,inhibition at 1 µM,[1],40.2%
same,IC50,MDA-MB-231 cells,> 80000 nM
same,IC50,MCF-7 cells,> 80000 nM
